Reference: the Deep4Chem optical property database

Experiment: solvent given as SMILES
Conditions: in CO

Row | SMILES | emission maximum [nm]
1 | COc1nc(Nc2cc3ccc4cccc5ccc(c2)c3c45)nc(OC)n1 | 392
2 | CN(C)c1ccc(/C=C/c2ccc(-c3nnc(-c4ccc(-c5cc6ccccc6s5)cc4)o3)cc2)cc1 | 404

Same assay, conditions: in CS(C)=O

Row | emission maximum [nm] | SMILES
3 | 542 | CCCCCCn1c2ccccc2c2cc(/C=C/c3cc(=O)oc4cc(C)ccc34)ccc21
4 | 479 | CCC1=C(C)C(=O)n2c1cc1c(c(C)c(C(=O)OCC(C)C)n1CC(C)C)c2=O
5 | 449 | CC(C)(C)OC(=O)COc1ccc2c(c1)oc(=O)c1c(=O)oc3ccccc3c12

Row | SMILES | emission maximum [nm]
6 | CC(=O)c1c2c(cc3c(N(C)C)cccc13)CCC2 | 598
7 | CN(C)c1ccc(/C=C/c2ccc(-c3nnc(-c4ccc(-c5cc6ccccc6s5)cc4)o3)cc2)cc1 | 408

Same assay, conditions: in Cc1ccccc1

Row | SMILES | emission maximum [nm]
8 | CCn1c2ccccc2c2cc(C#Cc3cc(C#Cc4ccc5c(c4)c4ccccc4n5CC)nc(SC)n3)ccc21 | 416
9 | CC1(C)c2ccccc2N(c2ccc(-c3nnc(-c4ccc(-n5c6ccccc6c6ccccc65)cc4)o3)cc2)c2ccccc21 | 460
10 | O=C1c2cc(-n3c4ccccc4c4ccccc43)ccc2S(=O)(=O)c2ccc(-n3c4ccccc4c4ccccc43)cc21 | 546
11 | CC1=C(c2cccs2)C(C)=[N+]2C1=C(c1ccc(O)cc1)c1c(C)c(-c3cccs3)c(C)n1[B-]2(F)F | 604
12 | O=S1(=O)C2=C(c3ccc(-c4ccc(N(c5ccccc5)c5ccccc5)cc4)cc31)C1(C3=C(c4ccccc41)S(=O)(=O)c1cc(-c4ccc(N(c5ccccc5)c5ccccc5)cc4)ccc13)c1ccccc12 | 543
13 | CSC1=C2C=C(c3cc4n(c3)[B-](F)(F)[N+]3=CC=CC3=C4c3c(C)cc(C)cc3C)C(C)=[N+]2[B-](F)(F)n2c(C)ccc21 | 663
14 | O=C1c2cc(-n3c4ccccc4c4ccccc43)c(-n3c4ccccc4c4ccccc43)cc2C(=O)N1c1ccccc1 | 510
15 | Cc1cc(C)c(B(c2c(C)cc(C)cc2C)c2c(C)cc(N3c4ccccc4Oc4ccccc43)cc2C)c(C)c1 | 509
16 | CC(=O)c1c2c(cc3c(N(C)C)cccc13)CCC2 | 520
17 | CCCCOC(=O)c1cc(Cl)c2c3c(Cl)cc4c5c(cc(Cl)c(c6c(Cl)cc(C(=O)OCCCC)c1c26)c53)C(=O)N(c1c(C(C)C)cccc1C(C)C)C4=O | 530
18 | CC1(C)c2ccccc2N(c2ccccc2)c2ccc(S(=O)(=O)c3ccc4c(c3)C(C)(C)c3ccccc3N4c3ccccc3)cc21 | 370.45

Same assay, conditions: in ClC(Cl)Cl

Row | emission maximum [nm] | SMILES
19 | 348 | C(#Cc1ccc(C#Cc2ccccc2)cc1)c1ccccc1
20 | 535 | Cc1ccc(C(=O)/N=c2\oc3cccc4c5c(-c6ccccc6)oc6cccc(c(c2-c2ccccc2)c34)c65)cc1
21 | 504 | CCCCCCn1c2ccccc2c2cc(/C=C/c3cc(=O)oc4cc(C)ccc34)ccc21
22 | 748 | CCNc1cc2c(cc1C)C(c1ccccc1C(=O)O)=C1CCCC(/C=C/C3=[N+](C)c4ccc5ccccc5c4C3(C)C)=C1O2
23 | 457 | CCC1=C(C)C(=O)n2c1cc1c(c(C)c(C(=O)OCC(C)C)n1CC(C)C)c2=O
24 | 594 | CCOC(CN1C(=O)C2=C(c3cc4cc(C(C)(C)C)cc(C(C)(C)C)c4o3)N(CC(OCC)OCC)C(=O)C2=C1c1cc2cc(C(C)(C)C)cc(C(C)(C)C)c2o1)OCC
25 | 676 | Cc1ccc(N(c2ccc(C)cc2)c2ccc(-c3ccc(C=C(C#N)C#N)cc3)cc2)cc1
26 | 392 | C(#Cc1ccccc1)C(C#Cc1ccccc1)=Cc1ccccc1
27 | 520.7 | CC1=CC(C)=[N+]2C1=C(c1ccc(I)cc1)c1c(C)cc(C)n1[B-]21OCCO1

Row | SMILES | emission maximum [nm]
28 | O=C1c2cc(-n3c4ccccc4c4ccccc43)ccc2S(=O)(=O)c2ccc(-n3c4ccccc4c4ccccc43)cc21 | 606
29 | CC(=O)c1c2c(cc3c(N(C)C)cccc13)CCC2 | 562

Same assay, conditions: in ClCCCl

Row | emission maximum [nm] | SMILES
30 | 430 | N#Cc1ccc2nc3c(=O)[nH]c(=O)[nH]c3nc2c1

Same assay, conditions: in ClCCl

Row | emission maximum [nm] | SMILES
31 | 412 | c1ccc(B2Nc3cc4c(cc3-c3sccc32)NB(c2ccccc2)c2ccsc2-4)cc1
32 | 377 | C[Si](C)(C)c1ccc2ccc3cccc4ccc1c2c34
33 | 356 | COc1ccc(-c2ncccn2)cc1
34 | 602 | CN(C)c1ccc(/C=C/c2nc3ccc(Br)cc3nc2-c2ccccc2)cc1
35 | 470 | CCCCCCCCOc1cc(/C=C/c2ccncc2)c(OCCCCCCCC)cc1/C=C/c1ccncc1
36 | 766 | CCN(CC)c1ccc2c(-c3ccccc3C(=O)O)c3c([o+]c2c1)/C(=C/c1ccc(N(C)C)s1)CCC3
37 | 500 | C(=C\c1ncc(-c2ccc(OCc3ccccc3)c(OCc3ccccc3)c2)o1)/c1cccc(N2CCN(c3ccccc3)CC2)c1
38 | 617 | CC[N+](CC)=c1ccc2c(-c3ccccc3C(=O)O)c3oc4cc(N)ccc4c3oc-2c1
39 | 447 | COc1ccc(-c2cccc3ncc(-c4ccc(C#N)cc4)n23)cc1
40 | 575 | O=[N+]([O-])c1ccc([N+]2=CC3=C(O[B-]2(F)F)c2ccccc2SC3)cc1
41 | 498 | Cc1ccc(/N=C2\N=C(N)c3cccc4cccc2c34)cc1
42 | 372 | O=S(=O)(c1ccc2c(c1)c1ccccc1n2-c1ccccc1)c1ccc2c(c1)c1ccccc1n2-c1ccccc1
43 | 580 | CCC1=C(C)C2=C(/C=C/Sc3ccccc3)c3c(C)c(CC)c(C)n3[B-](F)(F)[N+]2=C1C
44 | 536 | Cc1cccc(C)c1/C=C/c1nc(N2CCOCC2)c2c([n+]1[O-])CCCC2
45 | 518 | COc1ccc2n1[B-](F)(F)[N+]1=CC=CC1=C2c1ccccc1
46 | 574 | Clc1ccccc1N1c2c(sc3ccccc23)Sc2sc3ccccc3c21
47 | 574 | C1=CC2=CC=CC3C=c4c(cc5cccc6cccc4c65)C(=C1)C23 (stereo unspecified)
48 | 485 | C(=C\c1ncc(-c2ccc(OCc3ccccc3)c(OCc3ccccc3)c2)o1)/c1cccc(N2CCCC2)c1
49 | 425 | CCOC(=O)c1ccc(C2=Cc3ccccc3P2(=O)c2ccccc2)cc1 (stereo unspecified)
50 | 440 | CC(C)(C)OC(=O)COc1ccc2c(c1)oc(=O)c1c(=O)oc3ccccc3c12
51 | 367 | COc1ccc(-n2c3ccccc3c3c(C)cc4ccccc4c32)cc1

Row | SMILES | emission maximum [nm]
52 | CCn1c2ccccc2c2cc(C#Cc3cc(C#Cc4ccc5c(c4)c4ccccc4n5CC)nc(SC)n3)ccc21 | 471
53 | O=C1c2cc(-n3c4ccccc4c4ccccc43)ccc2S(=O)(=O)c2ccc(-n3c4ccccc4c4ccccc43)cc21 | 614
54 | CC1=C(c2cccs2)C(C)=[N+]2C1=C(c1ccc(O)cc1)c1c(C)c(-c3cccs3)c(C)n1[B-]2(F)F | 605
55 | O=S1(=O)C2=C(c3ccc(-c4ccc(N(c5ccccc5)c5ccccc5)cc4)cc31)C1(C3=C(c4ccccc41)S(=O)(=O)c1cc(-c4ccc(N(c5ccccc5)c5ccccc5)cc4)ccc13)c1ccccc12 | 624
56 | CC(=O)c1c2c(cc3c(N(C)C)cccc13)CCC2 | 562

Same assay, conditions: in O

Row | emission maximum [nm] | SMILES
57 | 351 | O=c1[nH]c(=O)n([C@@H]2O[C@H](CO)[C@@H](O)[C@H]2O)c2ccsc12
58 | 634 | CC[N+](CC)=c1ccc2c(-c3ccccc3C(=O)O)c3oc4cc(N)ccc4c3oc-2c1

Same assay, conditions: in O=P(c1ccccc1)(c1ccccc1)c1ccccc1Oc1ccccc1P(=O)(c1ccccc1)c1ccccc1

Row | SMILES | emission maximum [nm]
59 | CC1(C)c2ccccc2N(c2ccc(-c3nnc(-c4ccc(-n5c6ccccc6c6ccccc65)cc4)o3)cc2)c2ccccc21 | 479
60 | CC1(C)c2ccccc2N(c2ccccc2)c2ccc(S(=O)(=O)c3ccc4c(c3)C(C)(C)c3ccccc3N4c3ccccc3)cc21 | 381

Same assay, conditions: in OCC(O)CO

Row | emission maximum [nm] | SMILES
61 | 581 | CN(CCO)c1ccc(/N=N/c2ccc([N+](=O)[O-])cc2)cc1

Same assay, conditions: in OCCO

Row | emission maximum [nm] | SMILES
62 | 583 | CN(CCO)c1ccc(/N=N/c2ccc([N+](=O)[O-])cc2)cc1

Same assay, conditions: in Oc1ccccc1

Row | emission maximum [nm] | SMILES
63 | 581 | CN(CCO)c1ccc(/N=N/c2ccc([N+](=O)[O-])cc2)cc1

Same assay, conditions: in c1ccc2c(c1)c1ccccc1n2-c1ccc(-c2ccc(-n3c4ccccc4c4ccccc43)cc2)cc1

Row | SMILES | emission maximum [nm]
64 | Cc1cc(C)c(B(c2c(C)cc(C)cc2C)c2c(C)cc(N3c4ccccc4Oc4ccccc43)cc2C)c(C)c1 | 504

Same assay, conditions: in c1ccccc1

Row | emission maximum [nm] | SMILES
65 | 526 | CN(C)c1ccc2c(c1)-c1ccccc1C2=O
66 | 446 | CCC1=C(C)C(=O)n2c1cc1c(c(C)c(C(=O)OCC(C)C)n1CC(C)C)c2=O
